For data set [1], the target named is T1, ConA (Canavalia ensiformis, UniProt P02866). The note with it: cited from earlier work.
Data set [2] addresses T1, ConA.
Method: To explore whether the interaction of ConA with the core trimannose leads to aggregation in free solution, dynamic light scattering (DLS) measurements were performed. […] The TRIS buffer was 10 mM TRIS, 1 M NaCl, 1 mM CaCl2, 1 mM MnCl2, at pH 7.4. The dextran was 2 MDa and used as received from Sigma.
As controls, solutions of the individual components were also scanned to determine the particle size in the absence of aggregation. The final concentration was 3 μM for the competing ligand and 3 μM for ConA. Negative controls were run for each competing ligand (3 μM) without ConA present. ConA was also independently added to a separate control cuvette (3 μM). All solutions were in TRIS buffer and were filtered prior to combining the solutions. After 12 hours, the solutions were mixed to allow for the re-suspension of any settled material and dynamic light scattering studies were performed. The reported data is the average particle size as determined by percent-volume.

Where two headings read alike, the source gives them in different places.

As to `O=C[C@H](O)[C@@H](O)[C@@H](O)[C@H](O)CO` [galactose], the “affinity to ConA” value in data set [1] is on record as “no affinity”.

Regarding `OC[C@H]1O[C@H](OC[C@H]2OC(O)[C@@H](O)[C@@H](O[C@H]3O[C@H](CO)[C@@H](O)[C@H](O)[C@@H]3O)[C@@H]2O)[C@@H](O)[C@@H](O)[C@@H]1O` (stereo partly drawn) [trimannose, 3,6-Di-O-(α-D-mannopyranosyl)-D-mannopyranose], the “affinity to ConA” value in data set [1] (previously shown / literature value) is roughly 330000 M⁻¹. In addition, the “average size of particles in solution with ConA” value in data set [2] (3 μM ligand, 3 μM ConA, TRIS buffer, 12 hours, 22° C., DLS) is given as “did not increased in size”. Moreover, the “aggregation when paired with ConA” value in data set [2] (summary statement, DLS study) was “no aggregation”.

For the molecule methyl mannose, the “binding affinity to ConA relative to glucose” value in data set [1] (known value) was 20-40 times.

Source of the values: patent US20140350370A1, “GLUCOSE SENSING ASSAY” (The Texas A&M University System, priority 2013, published 2014).
